Experimental data as given in patent US20240116850A1, “COMPOSITIONS AND METHODS RELATED TO BICYCLO[2.2.1] HEPTANAMINE-CONTAINING COMPOUNDS” (The Broad Institute, Inc., priority 2020, published 2024).

Legend:
[1] = Dynamic Vapor Sorption (DVS) hygroscopicity; type: physicochemical; conditions: for DVS (matrix of results from solid form characterization): summary grade Good/Moderate/Poor
Description: Dynamic Vapor Sorption (DVS) was measured via a SMS (Surface Measurement Systems) DVS Intrinsic. The relative humidity at 25° C. were calibrated against the deliquescence point of LiCl, Mg(NO3)2 and KCl.

[2] = Physical and chemical stability on storage (LC-MS and XRPD); type: physicochemical; conditions: for decomposition or solid form change in stability assay / Stability (matrix of results from solid form characterization): 1 week stability assay; for Solid Form after storage (XRPD) / Stability: 25/60% RH; 40 C./75% RH; 1 week / Form change?: 1 week; for Stability: 25/60% RH; 40 C./75% RH; 1 week / Form change?: BRD4780 salt solid form, 25/60% RH and 40 C./75% RH; for Stability: 25/60% RH; 40 C./75% RH; 1 week: impurities estimated by LCMS by observation of the TIC; for Form change?: solid form change (XRPD); for Stability (matrix of results from solid form characterization): summary grade Good/Moderate/Poor
Description: To compare the physical/chemical stability of the salt candidates, approximate 10 mg of each solid sample was added to a 5-mL glass vial covered with Parafilm® with several pin-holes on it, and then stored under 25° C./60% RH and 40° C./75% RH. After one week storage, solids were taken out for LC-MS and XRPD test to evaluate physical and chemical stability.

[3] = TGA and DSC thermal characterization of salts; type: physicochemical; conditions: summary grade Good/Moderate/Poor
Description: TGA data were collected using a TA Discovery5500/Q5000 TGA from TA Instruments. DSC was performed using a TA Discovery2500/Q2000 DSC from TA Instruments.

[4] = Equilibrium solubility in water and bio-relevant media (SGF, FaSSIF, FeSSIF); conditions: for solubility: thermodynamic from solid; for Solubility (matrix of results from solid form characterization): summary grade Good/Moderate/Poor
MUC1-fs = assay: High-content imaging assay of MUC1-fs total cytoplasm intensity in P cells; type: cell-based; conditions: for EC50: MUC1-fs total cytoplasm intensity, P cells, 48 hr incubation; for ECMax: MUC1-fs, DMSO = 0, JQ1 (250 nM) = −100% activity
Description: (§1) P cells were seeded 24 hr prior to compound treatment at a density of 12,000 cells/well in 384 well Cell Carrier Ultra plates (6057308, Perkin Elmer), pre-coated with 0.25 mg/mL Synthemax 11 SC Substrate (3535, Corning). Compounds were used at 5 doses (35, 3.5, 0.35, 0.035 and 0.0035 μM) for the primary screen and 10 doses (16, 5.6, 1.8, 0.6, 0.21, 0.07, 0.02, 0.008, 0.002 and 0.0008 μM) for the following screens. The compounds, in two replicates, were transferred from compound source plates to the cell plates using the HighRes Pin Tool. DMSO was used as a negative control and JQ1 (250 nM) (a bromodomain inhibitor) was chosen as a positive control, based on earlier studies showing its potent effect on reducing total MUC1 mRNA levels (data not shown). After 48 hr incubation, cells were fixed for 20 min in 4% PFA (Electron Microscopy Sciences) in PBS, washed twice, then permeabilized (10 min) with 0.5% Triton-X100 (X100-100MVL, Sigma-Aldrich) in PBS and washed once more. Cells were blocked for 10 min at RT with Blocking solution (100 mM Tris HCL pH8; l150 mM NaCL; 5 g/L Blocking Reagent [11096176001, Roche]), then incubated 90 min at RT with one of the following primary antibodies in Roche Blocking solution: 1:500, monoclonal Fab-A-V5H anti-MUC1-fs, AbD22655.2, Bio-Rad; 1:2000, monoclonal mouse anti-MUC1 (214D4), 05-652-KC, Millipore; 1:1000, monoclonal, Rabbit anti-GM130 (D6B1) XP, 12480, Cell signaling technology. The primary antibody cocktail was incubated at RT for 1.5 hr, followed by four PBS wash cycles. The secondary antibody cocktail contained four components that were all prepared at a 1:1000 dilution in the Roche blocking solution and consisted of Alexa Fluor® 488-conjugated AffiniPure F(ab′)2 Fragment Goat anti-Human IgG, 109-546-097, Jackson Immunoresearch; Alexa Fluor® 647-conjugated Goat anti-Rabbit IgG, A-21246, Thermo Fisher Scientific®; Alexa Fluor® 546 Goat anti-mouse IgG, A-21123, Thermo Fisher Scientific® and Hoechst 33342 stain (62249, Thermo Fisher Scientific®). The secondary antibody cocktail was incubated at RT for 45 min, followed by four PBS wash cycles. Finally, plates were sealed with a Plate Loc plate and stored in Liconic incubator at 10° C. until imaging. Following image analysis, three parameters were selected, i) MUC1-fs and ii) MUC1-wt total cytoplasm intensity (averaged per cell) and iii) cell number as was detected by Hoechst 33342 stained nuclei. The levels of MUC1-fs and MUC1-wt found following DMSO and JQ1 were defined as 0 and −100% activity, respectively. The values obtained for all compounds were normalized accordingly. Cell number was normalized to DMSO control.
(§2) The pure enantiomers were profiled in the high-content imaging assay for the ability to reduce the amount of FS MUC1 protein in the cytoplasm (Table 48) following the procedure of Example 4.

MUC1-wt = assay: High-content imaging assay of MUC1-wt total cytoplasm intensity in P cells; type: cell-based; conditions: for EC50: MUC1-wt total cytoplasm intensity, P cells, 48 hr incubation; for WT ECMax: MUC1-wt, DMSO = 0, JQ1 (250 nM) = −100% activity
Description: as §1, §2

[5] = fasted state simulated intestinal fluid (FaSSIF), pH 6.5, fassif, FaSSIF solubility, Fasted State Simulated Intestinal Fluid (pH 6.5)
[6] = fed state simulated intestinal fluid (FeSSIF), pH 5, fessif, FeSSIF solubility, Fed State Simulated Intestinal Fluid (pH 5.0)
[7] = simulated gastric fluid (SGF), pH 1.8, simulated gastric fluid, SGF solubility, Simulated gastric fluid (pH 1.8)
[8] = water, H2O solubility (mM; salt)
[9] = water, H2O solubility (mg/mL; salt), HCl salt tested at 100 mg/mL, other salts at 50 mg/mL

## CC(C)[C@@H]1[C@H]2CC[C@H](C2)[C@H]1N (racemic) [Phosphate Type B]
[1]
  DVS (% H2O uptake at 25 C./80% RH): 1.18%
  DVS (% H2O uptake at 25 C./95% RH): 5.8%
  DVS (matrix of results from solid form characterization): Poor
[1]; DVS
  desorption of absorbed H2O: did not fully desorb
  hygroscopicity classification: hygroscopic
[2]
  decomposition or solid form change in stability assay: form change observed
  Stability: 25/60% RH; 40 C./75% RH; 1 week: No significant impurities
  Form change?: Phosphate A
  Stability (matrix of results from solid form characterization): Poor
[2]; 25° C./60% RH
  Solid Form after storage (XRPD): Phosphate Type A + B
[2]; 40° C./75% RH
  Solid Form after storage (XRPD): Phosphate Type A + B
[3]
  TGA/DSC (matrix of results from solid form characterization): Poor
[4]; [5]
  solubility: > 29 mg/mL
[4]; [6]
  solubility: > 27 mg/mL
[4]; final solution in FaSSIF
  pH: 5.1
[4]; final solution in FeSSIF
  pH: 4.8
[4]; final solution in H2O
  pH: 4.4
[4]; final solution in SGF
  pH: 3.0
[4]; [7]
  solubility: > 32 mg/mL
[4]
  Solubility (matrix of results from solid form characterization): Good
[4]; [8]
  solubility: > 163 mM
[4]; [9]
  solubility: > 33 mg/mL

## CC(C)[C@@H]1[C@H]2CC[C@H](C2)[C@H]1N.O=C(O)/C=C\C(=O)O [Maleate Type A]
[1]
  DVS (% H2O uptake at 25 C./80% RH): 0.02%
  DVS (% H2O uptake at 25 C./95% RH): 0.07%
  DVS (matrix of results from solid form characterization): Good
[1]; DVS
  hygroscopicity classification: not hygroscopic
[2]
  decomposition or solid form change in stability assay: did not display decomposition or solid form change
  Stability: 25/60% RH; 40 C./75% RH; 1 week: No significant impurities
  Form change?: No change
  Stability (matrix of results from solid form characterization): Good
[2]; 25° C./60% RH
  Solid Form after storage (XRPD): Maleate Type A
[2]; 40° C./75% RH
  Solid Form after storage (XRPD): Maleate Type A
[3]
  TGA/DSC (matrix of results from solid form characterization): Good
[4]; [5]
  solubility: > 27 mg/mL
[4]; [6]
  solubility: > 26 mg/mL
[4]; final solution in FaSSIF
  pH: 4.6
[4]; final solution in FeSSIF
  pH: 4.7
[4]; final solution in H2O
  pH: 3.8
[4]; final solution in SGF
  pH: 4.9
[4]; [7]
  solubility: > 28 mg/mL
[4]
  Solubility (matrix of results from solid form characterization): Good
[4]; [8]
  solubility: > 92.8 mM
[4]; [9]
  solubility: > 25 mg/mL

## Cl.N[C@H]1[C@@H]2CC[C@@H](C2)[C@@H]1C1CCCC1 (single isomer, unassigned) [Compound 117-P1]
MUC1-fs
  EC50: 25.9 µM
  ECMax: −16.91%
MUC1-wt
  EC50: > 32 µM
  WT ECMax: 7.72%

## Cl.N[C@H]1[C@@H]2CC[C@@H](C2)[C@@H]1C1CCCCC1 (racemic) [Compound 119]
MUC1-fs
  EC50: > 32 µM
  ECMax: 20.39%
MUC1-wt
  EC50: > 32 µM
  WT ECMax: 14.48%

## Cl.N[C@H]1[C@@H]2CC[C@@H](C2)[C@@H]1C1CC1 (single isomer, unassigned) [Compound 110-P1, (1R,2S,3S,4S)-3-cyclopropylbicyclo[2.2.1]heptan-2-amine hydrochloride]
MUC1-fs
  EC50: 8.49 µM
MUC1-wt
  EC50: > 32 µM

## Cl.N[C@@H]1[C@@H]2CC[C@@H](C2)[C@H]1C1CCCCC1 (single isomer, unassigned) [Compound 118-P1]
MUC1-fs
  EC50: > 32 µM
  ECMax: −7.97%
MUC1-wt
  EC50: > 32 µM
  WT ECMax: 9.54%

## CCC[C@@H]1[C@H]2CC[C@H](C2)[C@H]1N.Cl [Compound 107-P1]
MUC1-fs
  EC50: 25.8 µM
  ECMax: −15.72%
MUC1-wt
  EC50: > 32 µM
  WT ECMax: 14.07%

## Cl.N[C@@H]1[C@H]2CC[C@H](C2)[C@H]1c1ccccc1 (single isomer, unassigned) [Compound 121-P2]
MUC1-fs
  EC50: > 32 µM
  ECMax: −9.03%
MUC1-wt
  EC50: > 32 µM
  WT ECMax: 7.35%

## Cl.N[C@@H]1[C@H]2CC[C@H](C2)[C@H]1C1CCC1 (single isomer, unassigned) [Compound 114-P2]
MUC1-fs
  EC50: > 32 µM
  ECMax: −15.43%
MUC1-wt
  EC50: > 32 µM
  WT ECMax: 9.94%

## Cl.N[C@@H]1[C@H]2CC[C@H](C2)[C@H]1C1CCCCC1 (single isomer, unassigned) [Compound 119-P2]
MUC1-fs
  EC50: > 32 µM
  ECMax: 0%
MUC1-wt
  EC50: > 32 µM
  WT ECMax: 0%

## Cl.N[C@@H]1[C@@H]2CC[C@@H](C2)[C@H]1C1CCCCC1 (racemic) [Compound 118]
MUC1-fs
  EC50: > 32 µM
  ECMax: −9.08%
MUC1-wt
  EC50: > 32 µM
  WT ECMax: −8.52%

## CCC[C@H]1[C@H]2CC[C@H](C2)[C@@H]1N.Cl (racemic) [Compound 108-rac]
MUC1-fs
  EC50: > 32 µM
  ECMax: −8.01%
MUC1-wt
  EC50: > 32 µM
  WT ECMax: −4.32%

## Cl.N[C@@H]1[C@H]2CC[C@H](C2)[C@H]1C1CC1 (single isomer, unassigned) [Compound 110-P2, (1S,2R,3R,4R)-3-cyclopropylbicyclo[2.2.1]heptan-2-amine hydrochloride]
MUC1-fs
  EC50: 3.38 µM
MUC1-wt
  EC50: > 32 µM

## CC(C)C[C@H]1[C@H]2CC[C@H](C2)[C@@H]1N.Cl (racemic) [Compound 112]
MUC1-fs
  EC50: > 32 µM
  ECMax: 18.48%
MUC1-wt
  EC50: > 32 µM
  WT ECMax: −8.84%

## C[C@@H]1[C@H]2CC[C@H](C2)[C@H]1N.Cl (single isomer, unassigned) [Compound 104-P2]
MUC1-fs
  ECMax: −78.16%
MUC1-wt
  WT ECMax: −14.86%

## CCC[C@@H]1[C@@H]2CC[C@@H](C2)[C@H]1N.Cl [Compound 108-P2]
MUC1-fs
  EC50: 5.6 µM
  ECMax: 22.43%
MUC1-wt
  EC50: > 32 µM
  WT ECMax: 16.1%

## Cl.N[C@@H]1[C@@H]2CC[C@@H](C2)[C@H]1C1CC1 (racemic) [Compound 109]
MUC1-fs
  EC50: 0.45 µM
  ECMax: −73.56%
MUC1-wt
  EC50: > 32 µM
  WT ECMax: −12.5%

## CCC[C@@H]1[C@H]2CC[C@H](C2)[C@H]1N.Cl (racemic) [Compound 107-rac]
MUC1-fs
  EC50: > 32 µM
  ECMax: 10.08%
MUC1-wt
  EC50: > 32 µM
  WT ECMax: 8.64%

## CC(C)C[C@@H]1[C@H]2CC[C@H](C2)[C@H]1N.Cl (single isomer, unassigned) [Compound 111-P1]
MUC1-fs
  EC50: > 32 µM
  ECMax: −12.73%
MUC1-wt
  EC50: > 32 µM
  WT ECMax: −10.33%

## CC(C)[C@H]1[C@H]2CC[C@H](C2)[C@@H]1N.Cl [Compound 102]
MUC1-fs
  EC50: 8.63 µM
  ECMax: −60.66%
MUC1-wt
  EC50: > 32 µM
  WT ECMax: −16.83%

## CC(C)C[C@@H]1[C@H]2CC[C@H](C2)[C@H]1N.Cl (racemic) [Compound 111]
MUC1-fs
  EC50: > 32 µM
  ECMax: −9.02%
MUC1-wt
  EC50: > 32 µM
  WT ECMax: 10.58%
